Measured values from patent publication US9303032B2, “2-(pyridin-2YL)-1, 7-diaza-spiro [4.4] nonane-6-one compound as voltage-gated sodium channels modulator” (CONVERGENCE PHARMACEUTICALS LIMITED, priority 2011, dated 2016).
Structures can show the parent of a compound that is named as a salt.

Biological target: T1, hNaV1.7 (Homo sapiens, UniProt Q15858)
T1 construct: expressed in transfected cells; host or cells: HEK293
Assay: QPatch NaV1.7 assay
Type: cell-based
Conditions: HEK293-hNaV1.7 cells; holding potential −90 mV, most channels in closed state; read-out: QP Nav1.7 −90 mV pIC50 (converted)
Procedure: The compounds of the invention were tested in a QPatch NaV1.7 assay.
HEK293-hNaV1.7 cells were grown in DMEM-F12+10% FBS culture media at 37° C. At a confluency of 50-70% cells were dissociated from culture flasks & triturated to ensure unicellular cell suspension; cell density was measured & adjusted to 2-3×10^6 cells/ml. Recordings were obtained using QPatch16×. The external solution was (in mM): NaCl, 128; KCl, 5; MgCl2, 2; CaCl2, 2; Glucose, 30; HEPES, 15; pH 7.3, 305-315 mOsm. Following seal formation and whole-cell access using internal solution (containing in mM: CsF, 135; EGTA/CsOH, ⅕; HEPES 10; NaCl, 10; pH 7.3, 310-320 mOsM), voltage pulse protocols were applied. Initially a steady state inactivation voltage protocol was used to determine the half-maximal voltage for steady state inactivation (V1/2 SSI). Two holding voltages were used to determine test drug inhibition: −90 mV, where most of the channels are in a closed state; and V1/2 SSI, where half of the channels are inactivated. Currents were elicited every 10 seconds by stepping to a membrane potential of 0 mV for 20 ms. Four-point cumulative concentration responses were derived by determining the peak current amplitude at each concentration of test drug over 120 second application. Curves were fitted with the Hill equation yielding pIC50 values at −90 mV and V1/2 SSI holding potentials.

T1 sequence (Q15858 whole entry): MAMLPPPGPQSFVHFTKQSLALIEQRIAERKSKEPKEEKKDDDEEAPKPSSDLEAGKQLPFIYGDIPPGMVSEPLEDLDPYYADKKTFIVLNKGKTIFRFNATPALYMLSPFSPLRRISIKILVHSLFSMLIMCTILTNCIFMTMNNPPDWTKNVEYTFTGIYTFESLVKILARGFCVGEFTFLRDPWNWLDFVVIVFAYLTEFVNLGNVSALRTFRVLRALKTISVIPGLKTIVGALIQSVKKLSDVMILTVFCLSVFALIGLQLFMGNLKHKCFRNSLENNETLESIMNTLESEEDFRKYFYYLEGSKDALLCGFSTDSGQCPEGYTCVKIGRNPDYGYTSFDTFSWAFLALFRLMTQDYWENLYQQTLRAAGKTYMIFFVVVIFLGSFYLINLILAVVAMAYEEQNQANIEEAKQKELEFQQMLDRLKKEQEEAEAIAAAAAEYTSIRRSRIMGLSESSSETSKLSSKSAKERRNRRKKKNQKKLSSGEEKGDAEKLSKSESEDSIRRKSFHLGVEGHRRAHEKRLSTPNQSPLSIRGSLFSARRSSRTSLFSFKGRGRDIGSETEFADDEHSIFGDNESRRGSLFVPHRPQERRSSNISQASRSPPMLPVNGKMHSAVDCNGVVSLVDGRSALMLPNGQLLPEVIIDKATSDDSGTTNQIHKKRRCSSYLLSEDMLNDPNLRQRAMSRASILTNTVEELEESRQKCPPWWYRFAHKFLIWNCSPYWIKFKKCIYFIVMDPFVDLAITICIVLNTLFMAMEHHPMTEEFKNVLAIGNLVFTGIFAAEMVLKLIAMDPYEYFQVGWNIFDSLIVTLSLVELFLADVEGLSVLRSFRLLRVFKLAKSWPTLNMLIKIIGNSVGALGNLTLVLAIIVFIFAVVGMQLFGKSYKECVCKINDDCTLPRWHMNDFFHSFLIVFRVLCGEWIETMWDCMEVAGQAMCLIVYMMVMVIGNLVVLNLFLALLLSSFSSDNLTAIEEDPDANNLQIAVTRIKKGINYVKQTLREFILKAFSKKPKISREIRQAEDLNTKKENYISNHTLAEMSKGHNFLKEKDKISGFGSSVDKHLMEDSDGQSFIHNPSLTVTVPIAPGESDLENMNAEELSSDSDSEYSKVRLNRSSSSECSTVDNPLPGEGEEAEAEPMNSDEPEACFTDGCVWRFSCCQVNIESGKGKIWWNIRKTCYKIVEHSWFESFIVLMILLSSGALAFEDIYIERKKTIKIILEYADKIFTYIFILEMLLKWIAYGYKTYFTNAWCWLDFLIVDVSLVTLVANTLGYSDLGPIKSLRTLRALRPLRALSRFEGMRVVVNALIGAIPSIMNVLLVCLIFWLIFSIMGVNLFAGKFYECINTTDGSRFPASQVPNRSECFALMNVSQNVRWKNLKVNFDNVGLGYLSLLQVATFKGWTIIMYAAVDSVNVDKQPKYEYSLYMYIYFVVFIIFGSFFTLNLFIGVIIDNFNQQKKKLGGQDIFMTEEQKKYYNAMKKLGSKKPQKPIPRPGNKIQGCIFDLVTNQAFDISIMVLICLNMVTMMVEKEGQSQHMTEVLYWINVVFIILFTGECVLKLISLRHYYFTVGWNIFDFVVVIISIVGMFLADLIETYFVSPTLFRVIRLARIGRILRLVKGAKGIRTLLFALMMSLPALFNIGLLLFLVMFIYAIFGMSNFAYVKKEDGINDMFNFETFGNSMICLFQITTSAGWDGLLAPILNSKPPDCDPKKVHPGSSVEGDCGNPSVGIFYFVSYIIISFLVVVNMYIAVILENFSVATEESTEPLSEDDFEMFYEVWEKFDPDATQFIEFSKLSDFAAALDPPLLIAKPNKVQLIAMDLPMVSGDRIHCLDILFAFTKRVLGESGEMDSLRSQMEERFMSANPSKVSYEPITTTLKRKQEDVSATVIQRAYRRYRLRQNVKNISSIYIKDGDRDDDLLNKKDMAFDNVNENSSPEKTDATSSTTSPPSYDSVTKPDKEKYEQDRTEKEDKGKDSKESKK

With `CN1CC[C@@]2(CC[C@H](c3cc(-c4cccc(OC(F)(F)F)c4)ccn3)N2)C1=O` [Example 1, (2R,5S)-7-Methyl-2-[4-[3-(trifluoromethoxy)phenyl]-2-pyridyl]-1,7-diazaspiro[4.4]nonan-6-one hydrochloride] the IC50 was 50.1 µM.
